The numbers were not newly measured in US9622975B2, “Pharmaceutical composition” (Novartis AG, priority 2005, dated 2017), which cites them from elsewhere.

For data set [1] the following is noted: especially in the alkaline conditions of the intestine.
For data set [2] the following is noted: in vivo.

For the compound `O=C(O)CCCCCCCNC(=O)c1cc(Cl)ccc1O` [Example 5-CNAC, N-(5-chlorosalicyloyl)-8-aminocaprylic acid], the water solubility entry in data set [1] is recorded as “very water soluble”.

In the case of `O=C(O)CCCCCCCNC(=O)c1ccccc1O` [SNAC, N-(8-[2-hydroxybenzoyl]amino) caprylic acid], the water solubility entry in data set [1] is reported as “very water soluble”.

For the compound `O=C(O)CCCCCCCCCNC(=O)c1ccccc1O` [SNAD, N-(10-[2-hydroxybenzoyl]amino) decanoic acid], the “absorbed by the gastro-intestinal tract” value in data set [2] was “greater than 90%”.
